Test [1] concerns the target T1, 5HT2 receptors (Rattus norvegicus, UniProt P14842).
T1 construct: Ring preparations of external rat jugular veins were used; tissue Harlan Sprague-Dawley, Inc., Cumberland, IN (animals); host or cells: external jugular vein rings of male Wistar rats
As to conditions: cited from earlier work.

Test [2] has as its system vascular (5HT2) serotonin receptors. The experiment in a line: Duration of inhibition of vascular 5HT2 receptors in pithed rats (serotonin challenge 0.1 mg/kg i.v.). As to conditions: for inhibition of vascular serotonin receptors: pithed rats; for Increase in mean blood pressure to serotonin: 0.1 mg/kg iv. In kind it is in vivo, rat. Here is the method: For these studies pithed rats were treated with vehicle or with the acid or the ester at a dose of 0.1 mg/kg, i.v. and challenged with serotonin (0.1 mg/kg i.v.) at various intervals for 2 hrs. after test compound or vehicle administration.

Test [3] has as its target T1, 5HT2 receptors. Kind of test: Antagonism of serotonin-induced contractions in the rat jugular vein (in vitro 5HT2 affinity). Format: cell-based. How it is done:
Male Wistar rats (150-300 g) (Harlan Sprague-Dawley, Inc., Cumberland, IN) were killed by cervical dislocation. Ring preparations of external rat jugular veins were used as detailed in [(Cohen et al., J. Pharm. and Exper. Therapeutics 227, 327-332 (1983); Cohen et al., J. Pharm. and Exper. Therapeutics 235, 319-323 (1985).]
Tissues were mounted in organ baths containing 10 ml of modified Krebs' solution of the following composition (millimolar concentrations): NaCl, 118.2; KCl, 4.6; CaCl2.2H2 O, 1.6; KH2 PO4, 1.2; MgSO4, 1.2; dextrose, 10.0; and NaHCO3, 24.8. Tissue bath solutions were maintained at 37° C. and aerated with 95% O2 -5% CO2. Isometric contractions were recorded as changes in grams of force on a Beckman Dynograph with Statham UC-3 transducers and microscale accessory attachments. Tissues were allowed to equilibrate at an initial optimum resting force for 1 to 2 hr before exposure to test compound.
After control contractile responses to serotonin were obtained in the jugular vein, vessels were incubated with appropriate concentrations of the test compound for 1 hr. Responses to serotonin were then repeated in the presence of test compound.
Apparent test compound dissociation constants (KB) were determined for each concentration of test compound according to the following equation: [formula] where (B) is the concentration of the test compound and dose ratio is the ED50 of the serotonin in the presence of the test compound divided by the control ED50. […] The data were also analyzed according to the procedure of Arunlakshana and Schild, Brit. J. Pharmacol. 14, 48-58 (1959) as previously described [Cohen et al., supra (1983)].

The test system of test [4] is vascular (5HT2) serotonin receptors. Kind of test: Duration of inhibition of vascular 5HT2 receptors in pithed rats (serotonin challenge 0.1 mg/kg i.v.). Format: in vivo, rat. The settings on record: 0.3 mg/kg iv.
Test [5] has the same test system. The experiment in a line: Inhibition of the pressor response to serotonin in pithed rats after intravenous test compound. Format: in vivo, rat. The settings on record: for effect on pressor response to serotonin: pithed rats. How it is done:
Serotonin receptor antagonism was evaluated in pithed Wistar normotensive rats (Charles River, Inc. Portage, MI; 240-374 g) since responses in the pithed preparation are primarily direct vascular effects. Rats were anesthetized with Metofane® (methoxyflurane), carotid arterial and femoral venous catheters were implanted, and the trachea was cannulated. Rats were pithed and ventilated with room air (Cohen et al., supra, 1983; Cohen et al., supra, 1985). An equilibration period of 15 min. was observed before control measurements and i.v. administration of test compound or vehicle. Increasing intravenous doses of serotonin were injected 15 min. after intravenous administration of test compound or vehicle. […] By intravenous administration, 1-isopropyldihydrolysergic acid was only approximately one-third as potent as the ester in blocking vascular 5HT2 receptors.

The mark [6] stands for this setting: 15 minutes after test compound, serotonin 0.1 mg/kg iv.
Setting [7] is: 120 minutes after test compound.

Where two headings read alike, the source gives them in different places.

T1 sequence (P14842 whole entry): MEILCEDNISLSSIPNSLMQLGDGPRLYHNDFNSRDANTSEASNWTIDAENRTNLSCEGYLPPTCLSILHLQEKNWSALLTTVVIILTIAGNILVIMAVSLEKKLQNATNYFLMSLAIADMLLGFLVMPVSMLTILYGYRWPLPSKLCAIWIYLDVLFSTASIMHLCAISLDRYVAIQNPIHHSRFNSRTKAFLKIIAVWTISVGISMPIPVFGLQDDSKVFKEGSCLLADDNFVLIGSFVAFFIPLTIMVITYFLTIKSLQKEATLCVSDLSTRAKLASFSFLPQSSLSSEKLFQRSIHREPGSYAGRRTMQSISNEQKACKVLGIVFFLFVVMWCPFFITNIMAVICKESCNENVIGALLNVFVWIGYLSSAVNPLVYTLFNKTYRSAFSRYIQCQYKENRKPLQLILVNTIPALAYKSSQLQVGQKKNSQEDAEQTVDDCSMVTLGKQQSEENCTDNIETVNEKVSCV

One may read the Kd as the constant that tells how readily two partners part at equilibrium. The low end stands for tighter binding, the high end for weaker binding. For `CC(C)n1cc2c3c(cccc31)C1C[C@@H](C(=O)O)CN(C)[C@@H]1C2` (some centres unmarked) [II, 1-isopropyldihydrolysergic acid], in test [1], the “affinity in vitro for 5HT2 receptors (background statement)” value was “relatively low affinity”. The “inhibition of vascular serotonin receptors” value in test [2] (0.1 mg/kg i.v.) is reported as “marked block of vascular serotonin receptors”. The “inhibition of serotonin vascular response 2 hrs. after administration” value in test [2] (0.1 mg/kg i.v., 2 hrs. after intravenous administration) is listed as “marked inhibition of serotonin vascular response was still apparent”. In addition, the “Increase in mean blood pressure to serotonin” value (shortened to “Increase”) in test [2] (setting [6]) amounted to 29.7 mm Hg; in test [2] (30 minutes after test compound) it was 27.8 mm Hg; in test [2] (60 minutes after test compound), 35.3 mm Hg; in test [2] (90 minutes after test compound), 41.7 mm Hg; in test [2] (setting [7]), 48.1 mm Hg; in test [4] (15 minutes after test compound), 3.2 mm Hg. In addition, the “Increase” value in test [4] (30 minutes after test compound) stood at 3.4 mm Hg; in test [4] (60 minutes after test compound), 4.2 mm Hg; in test [4] (90 minutes after test compound), 9.6 mm Hg; in test [4] (setting [7]), 13.6 mm Hg. In addition, the Kb in test [3] (Schild plot abscissa intercept, rat jugular vein, read-out: pA2 (converted)) was 151 nM; in test [3] (rat jugular vein, serotonin contraction, apparent dissociation constant, n tissues in parentheses, read-out: -log KB ± SE(n) (converted)), 85.1 nM. Also, the “type of antagonism at 5HT2 receptors” value in test [3] (jugular vein, Schild slope not different from negative unity) is recorded as “competitive antagonist”. Also, the Kd in test [3] (rat jugular vein) is around 100 nM. The “affinity fold lower than the 4-methoxycyclohexyl ester” value in test [3] (rat jugular vein) was “approximately 100 fold”. In test [3] (ratio from pA2 of II and I), the “ratio II/I (pA2)” value was 170. Further, in test [3] (ratio of KB of II to I), the “ratio II/I (KB)” value is given as 78. Also, the “-Slope” value in test [3] (slope of Schild plot, rat jugular vein) came to 1.29. Besides, in test [5] (in vivo), the “potency as a 5HT2 antagonist in vivo” value is “relatively high potency”. Moreover, the “intravenous dose relative to the 4-methoxycyclohexyl ester to block vascular 5HT2 receptors” value in test [5] (intravenous) is given as “three-fold higher”. For the same compound, the “potency relative to the ester in blocking vascular 5HT2 receptors” value in test [5] (intravenous administration) is listed as “approximately one-third”. Moreover, the “effect on pressor response to serotonin” value in test [5] (intravenous) is “dose-dependently inhibited”.

Take `COC1CCC(OC(=O)C2C[C@@H]3c4cccc5c4c(cn5C(C)C)C[C@H]3N(C)C2)CC1` (some centres unmarked) [I, reference compound]: in test [2] (0.1 mg/kg i.v.), the “inhibition of vascular serotonin receptors” value is on record as “greater inhibition of vascular serotonin receptors than the acid”. In addition, the “Increase” value in test [2] (setting [6]) came to 7.3 mm Hg; in test [2] (30 minutes after test compound), 12.7 mm Hg; in test [2] (60 minutes after test compound) it was 23.9 mm Hg; in test [2] (90 minutes after test compound), 34.6 mm Hg; in test [2] (setting [7]) it was 34.6 mm Hg. Also, the “effect on pressor response to serotonin” value in test [5] (intravenous) is “dose-dependently inhibited”.

(Values after patent US4914107A, “Method for selectively blocking 5-HT2 receptors” (Eli Lilly and Company, priority 1989, dated 1990).)
